# Measurements: patent publication US20160058872A1, “IMIDE-BASED MODULATORS OF PROTEOLYSIS AND ASSOCIATED METHODS OF USE” (Arvinas, Inc., priority 2014, published 2016)
# System: c-Myc
# Experiment: c-Myc protein level by immunoblot in BL cell lines
# Type: cell-based
# Conditions: 24 hours, washout
# Method: Cultured cells were collected in lysis buffer containing 40 mM HEPES (pH 7.4), 140 mM NaCl, 2.5 mM EDTA, 1% NP-40, 0.1% SDS and protease inhibitor cocktail. After 10 minutes of centrifugation (14000 rpm), supernatant was collected for protein concentration determination by BCA method and subjected for immunoblotting by standard protocol. Western blot results were visualized using Bio-Rad Clarity ECL Western Blotting Substrate on Bio-Rad ChemiDoc™ MP imaging system.
# A separate set of cells were treated in the same manner, except that DMSO was used in place of the inhibitor. Following treatment, cell lysates were collected and analyzed by immunoblot for c-Myc and Actin.
# Cells were re-seeded and incubated without inhibitor for 0 hr, 0.5 hr, 1.0 hr, 2.0 hr, 3.0 hr, 4.0 hr, and 6.0 hr. Cell lysates were then collected at the various time points and analyzed by immunoblot for c-Myc and Actin. In a parallel control experiment, NAMALWA cells were treated in the same manner, except DMSO was used in place of JQ1.
# After treatment, the cells were either lysed (to evaluate the suppression of c-Myc by the inhibitors) or washed to remove the inhibitor, re-seeded, and incubated without inhibitor for 4.0 hours (to evaluate the reversibility of c-Myc suppression). Cell lysates were collected and analyzed by immunoblot for c-Myc and Actin.
# Following treatment, cell lysates were collected and analyzed by immunoblot for BRD4, c-Myc and Actin.
# Cells were re-seeded in fresh medium and incubated without any compound for 0 hr, 2.0 hr, 4.0 hr, 6.0 hr, and 24.0 hr. In a parallel control experiment, cells were treated in the same manner, except DMSO was used in place of inhibitor. Lysates were collected and analyzed by immunoblot for BRD4, c-Myc, and Actin.
structure (smiles),measurement,setting,value
Cc1sc2c(c1C)C(c1ccc(Cl)cc1)=N[C@@H](CC(=O)OC(C)(C)C)c1nnc(C)n1-2 [JQ1],time to recovery of c-Myc to control level after removal,"NAMALWA, 1.0 μM",≤ 4 h
same,time to return of c-Myc to control level post removal,"NAMALWA, after 1000 nM",≤ 3.0 h
same,time to significant c-Myc increase after removal,"Ramos, after 1000 nM",≤ 4.0 h
